Among the data in ChEMBL document CHEMBL3393013, “Structural Insights for the Optimization of Dihydropyrimidin-2(1H)-one Based mPGES-1 Inhibitors” (ACS Med Chem Lett, 2015) are IC50 values, retold here.

The experiment addresses T1, Prostaglandin E synthase (Homo sapiens, UniProt O14684).
T1 sequence (O14684 whole entry): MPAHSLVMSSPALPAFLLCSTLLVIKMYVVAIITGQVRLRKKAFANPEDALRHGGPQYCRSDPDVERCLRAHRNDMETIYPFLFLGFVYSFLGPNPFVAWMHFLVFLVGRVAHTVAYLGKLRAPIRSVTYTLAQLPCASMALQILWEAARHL
The experiment in a line: Inhibition of mPGES-1 in interleukin-1beta-stimulated human A549 cells microsomal membranes assessed as reduction in PGE2 formation incubated for 15 mins in presence of PGH2 and glutathione by RP-HPLC method. It is filed as cell-based.

Molecules are shown by their SMILES. pIC50: −log10 of the molar value.

One may read the pIC50 as the IC50 on a negative log10 scale, so that one unit is a factor of ten. Take `CC1=C(C(=O)c2cc(Br)ccc2O)C(c2ccc(-c3cccc(C(F)(F)F)c3)o2)NC(=O)N1` (stereo not drawn): the negative-log IC50 (pIC50) was 5.25. The same measure for `CC1=C(C(=O)OCc2ccccc2)C(c2ccc(-c3cccc(C(F)(F)F)c3)o2)NC(=O)N1` (stereo not drawn): 5.85; for `CC1=C(C(=O)OCc2ccccc2)C(c2ccc(-c3cccc(C(F)(F)F)c3)o2)NC(=O)N1CCC(=O)O` (stereo not drawn): 6.39.
